Measurements published in patent US20250352555A1, “METHOD OF INCREASING IMMUNE CELL ACTIVATION AND/OR TREATING CANCER USING DIBENZOXAZEPINONES” (VASCULAR THERAPEUTICS PTY LTD, priority 2022, published 2025).

Legend:
[1] = tested on: p-ERK (Thr^202/Tyr^204); experiment: Western blotting for p-ERK, A375 melanoma cells; format: cell-based, human; details: 10 or 100 nM, 24 h
Description: (§1) Western blotting. Cells were treated with compounds and times indicated and total cell lysates were prepared in RIPA buffer. Lysates (10 μg) were resolved by SDS-PAGE and transferred to Immobilon-P polyvinylidene difluoride (PVDF) membranes (Millipore, USA).
Membranes were blocked with 5% skim milk and incubated with rabbit monoclonal anti-c-Jun (Abcam, cat. no. ab32137; mouse, rat and human reactive) antibody, rabbit monoclonal anti-PD-1 (Abcam, cat. no. ab214421) antibody, mouse monoclonal β-actin antibody (Sigma-Aldrich, cat. no. A5316), anti-phospho-SAPK/JNK (Thr^183/Tyr^185) (98F2) (CST, cat. no. 4671) antibody, anti-phospho-p44/42 MAPK (ERK1/2) (Thr^202/Tyr^204) (D13.14.4E) (CST, cat. no. 4370) antibody, anti-phospho-p38 MAPK (Thr^180/Tyr^182) (D3F9) (CST, cat. no. 4511) antibody, anti-SAPK/JNK antibody (CST, cat. no. 9252), anti-p44/42 MAPK (ERK1/2) (137F5) antibody (CST, cat. no. […] Chemiluminescence was detected using the Western Lightning Chemiluminescence system (Thermo Scientific, USA) and ImageQuant™ LAS 4000 biomolecular imager (GE Healthcare Life Sciences, USA). Band intensity in images generated with the LAS 4000 was quantified using NIH Image J.
The effect of BT2 on ERK phosphorylation (p-ERK) was evaluated in human melanoma cells given that MAP kinase activation is key to melanoma progression and the paucity of clinically approved ERK inhibitors. […]

[2] = tested on: A375 cells; experiment: Invasion assay (Matrigel), A375; format: cell-based, human; details: 1 μM, 24 h, with greater potency than SCH772984
Description: Invasion assays. Cells were grown in medium containing 10% FBS in 24-well plates. The following day the cells were scratched with a sterile toothpick, washed with PBS, and overlayed with 90% Matrigel (cat. no. 354230, Corning) (200 μl/well) containing vehicle, BT2 or SCH772984 at 1 μM. The cells were immediately photographed under a 10× objective using an Olympus CKX41 microscope, incubated at 37° C. for 1 h, and medium (800 μl/well) containing 10% FBS with vehicle, BT2 or SCH772984 at 1 μM was added. After 24 or 48 h, the cells were again photographed under a 10× objective using the same microscope. To assess the effect of BT2 on melanoma cell migration, A375 and MeWo cells were incubated with 1 μM of BT2 or SCH772984, and A375 and MeWo migration into the denuded zone was quantified after 24 or 48 h, respectively.

[3] = tested on: total ERK; experiment: Immunohistochemistry of MDA-MB-435 tumors, total ERK; format: in vivo, mouse; details: SCID mice, 20 mg/kg i.t.
From the text: (§2) Immunohistochemical staining and analyses. Rabbit monoclonal anti-CD3 (cat. no. ab16669; mouse, rat and human reactive), rabbit monoclonal anti-PD-1 (cat. no. ab214421), rabbit monoclonal anti-CD68 (cat. no. ab125212) antibodies were obtained from Abcam, rabbit monoclonal anti-phospho-ERK (Thr^202/Tyr^204) (cat. no. CST4370), rabbit monoclonal total ERK (cat. no. CST4695), antibodies were obtained from Cell Signaling Technology. Rabbit polyclonal anti-PD-L1 (cat. no. PA5-20343) antibody was obtained from ThermoFisher.
(§3) Formalin fixed, paraffin embedded sections were prepared from tumors. Heat-induced epitope retrieval was applied to all deparaffinized sections (4 μm sections on Superfrost slides) with citrate buffer, pH 6.0 for 5 min at 110° C. Sections were blocked with Dual Endogenous Enzyme Block (DAKO, S2003) for 10 min and then with 2% skim milk for 20 min. Slides were incubated with primary antibody for 60 min at room temperature or overnight at 4° C. and then for 10 min with probe of MACH3 Rabbit AP-Polymer Detection solution (Biocare Medical, M3R533 G, H, L). […] Integrated optical density (IOD) or area of positive staining (red chromagen) was assessed using Image-Pro Plus software (Cybernetics, Bethesda, MD, USA). Positive staining was the average of quantitation in 4-8 fields of view under 20× or 40× objectives.

[4] = tested on: CD3; experiment: Immunohistochemistry of B16F10 tumors (Day 17), CD3; format: in vivo, mouse; details: B16F10 tumors Day 17, 200 mg/kg i.p.
From the text: as §2
as §3, with “objectives. […]” for “objectives.”

[5] = tested on: DUSP8; experiment: Western blotting for DUSP8, Jurkat T cells; format: cell-based, human; details: 24 h
Description: as §1
(§4) Membranes were blocked with 5% skim milk and incubated with rabbit monoclonal anti-c-Jun (Abcam, cat. no. ab32137; mouse, rat and human reactive) antibody, rabbit monoclonal anti-PD-1 (Abcam, cat. no. ab214421) antibody, mouse monoclonal β-actin antibody (Sigma-Aldrich, cat. no. A5316), anti-phospho-SAPK/JNK (Thr^183/Tyr^185) (98F2) (CST, cat. no. 4671) antibody, anti-phospho-p44/42 MAPK (ERK1/2) (Thr^202/Tyr^204) (D13.14.4E) (CST, cat. no. 4370) antibody, anti-phospho-p38 MAPK (Thr^180/Tyr^182) (D3F9) (CST, cat. no. 4511) antibody, anti-SAPK/JNK antibody (CST, cat. no. 9252), anti-p44/42 MAPK (ERK1/2) (137F5) antibody (CST, cat. no. 4695), anti-p38 MAPK antibody (CST, cat. no. 9212), anti-DUSP8 antibody (Abcam, cat. no. ab198175) or anti-c-MAF (BLR045F) antibody (Abcam, cat. no. ab243901). […] Chemiluminescence was detected using the Western Lightning Chemiluminescence system (Thermo Scientific, USA) and ImageQuant™ LAS 4000 biomolecular imager (GE Healthcare Life Sciences, USA). Band intensity in images generated with the LAS 4000 was quantified using NIH Image J. […]

[6] = tested on: JUN; experiment: Western blotting for JUN, MDA-MB-435 cells; format: cell-based, human; details: MDA-MB-435 cells (BRAF^V600E), 24 h, dose-dependent
Description: as §1, §4

**Q.** What does the source list for `CCOC(=O)Nc1ccc2c(c1)C(=O)N(CC)c1ccccc1O2` [BT2, (10-ethyl-11-oxo-10,11-dihydro-dibenzo[b,f][1,4]oxazepin-2-yl)-carbamic acid ethyl ester]?
**A.** ERK phosphorylation (p-ERK, Western blot) [1]: suppressed ERK phosphorylation; invasion into the denuded zone of Matrigel [2]: suppressed; total ERK levels in the tumors (IHC) [3]: no effect on total ERK levels; CD3+ staining in the tumor periphery (within 250 μm) (IHC) [4]: stimulated CD3^+ staining in the tumor periphery; DUSP8 protein levels (Western blot) [5]: elevated; JUN expression (Western blot) [6]: increased
